One may read the IC90 as the point of the concentration-response curve where the effect stands at 90%.

The first test has as its system Acinetobacter baumannii ATCC17961. Put plainly: Antimicrobial susceptibility testing: 90% growth inhibitory concentration (IC90) determination. The format is cell-based. Conditions: ATCC17961, 90% growth inhibitory concentration, Iso-Sensitest broth, OD 600 nm over 16 h, 35±2° C., read-out: ATCC 17961 IC90. As for the experimental part:
Assay Procedures Antimicrobial Susceptibility Testing: 90% Growth Inhibitory Concentration (IC90) Determination
The in vitro antimicrobial activity of the compounds was determined according to the following procedure:
The assay used a 10-points Iso-Sensitest broth medium to measure quantitatively the in vitro activity of the compounds against Acinetobacter baumannii ATCC17961.
Stock compounds in DMSO were serially twofold diluted (e.g. range from 50 to 0.097 μM final concentration) in 384 wells microtiter plates and inoculated with 49 μl the bacterial suspension in Iso-Sensitest medium to have a final cell concentration of ˜5×10^5 CFU/ml in a final volume/well of 50 μl/well. Microtiter plates were incubated at 35±2° C.
Bacterial cell growth was determined with the measurement of optical density at λ=600 nm each 20 minutes over a time course of 16 h. Growth inhibition was calculated during the logarithmic growth of the bacterial cells with determination of the concentration inhibiting 50% (IC50) and 90% (IC90) of the growth.
Table 1 provides the 90% growth inhibitory concentrations (IC90) in micromoles per liter of the compounds of present invention obtained against the strain Acinetobacter baumannii ATCC17961.
On to `Cc1n[nH]c2cc(F)c(-c3cnc(C(=O)Nc4ccc(C(=O)N5CCN(C(=O)C[C@@H]6CCNC6)CC5)c(Cl)c4)n3C)cc12` [Example A2, N-[3-chloro-4-[4-[2-[(3S)-pyrrolidin-3-yl]acetyl]piperazine-1-carbonyl]phenyl]-5-(6-fluoro-3-methyl-1H-indazol-5-yl)-1-methyl-imidazole-2-carboxamide], for which the IC90 turned out to be 0.46 µM.

Turning to `Cn1c(-c2ccc3[nH]nc(C(F)(F)F)c3c2)cnc1C(=O)Nc1ccc(C(=O)N2CCN(C(=O)C[C@@H]3CCNC3)CC2)c(Cl)c1` [Example A3, N-[3-chloro-4-[4-[2-[(3S)-pyrrolidin-3-yl]acetyl]piperazine-1-carbonyl]phenyl]-1-methyl-5-[3-(trifluoromethyl)-1H-indazol-5-yl]imidazole-2-carboxamide], the IC90 is 0.23 µM.

As to `Cn1c(-c2ccc(Cl)nc2Cl)cnc1C(=O)Nc1ccc(C(=O)N2CCN(C(=O)C3CCNCC3)CC2)c(Cl)c1` [Example A5, N-[3-chloro-4-[4-(piperidine-4-carbonyl)piperazine-1-carbonyl]phenyl]-5-(2,6-dichloro-3-pyridyl)-1-methyl-imidazole-2-carboxamide], the 90% effect concentration (IC90) stood at 0.72 µM.

`CN(C)c1ccc(-c2cnc(C(=O)Nc3ccc(C(=O)N4CCN(C(=O)C5CCNCC5)CC4)c(Cl)c3)n2C)c(C(F)(F)F)n1` [Example A6, N-[3-chloro-4-[4-(piperidine-4-carbonyl)piperazine-1-carbonyl]phenyl]-5-[6-(dimethylamino)-2-(trifluoromethyl)-3-pyridyl]-1-methyl-imidazole-2-carboxamide]: the concentration for an effect of 90% (IC90) is 0.31 µM.

As to `COc1ccc(-c2cnc(C(=O)Nc3ccc(C(=O)N4CCN(C(=O)C5CCNCC5)CC4)c(Cl)c3)n2C)c(OC)n1` [Example A7, N-[3-chloro-4-[4-(piperidine-4-carbonyl)piperazine-1-carbonyl]phenyl]-5-(2,6-dimethoxy-3-pyridyl)-1-methyl-imidazole-2-carboxamide], the IC90 amounted to 0.46 µM.

Take `COc1cc(-c2cnc(C(=O)Nc3ccc(C(=O)N4CCN(C(=O)C5CCNCC5)CC4)c(Cl)c3)n2C)c(Cl)cn1` [Example A8, 5-(5-chloro-2-methoxy-4-pyridyl)-N-[3-chloro-4-[4-(piperidine-4-carbonyl)piperazine-1-carbonyl]phenyl]-1-methyl-imidazole-2-carboxamide]: the IC90 was 0.57 µM.

`CN(C)c1ncc(-c2cnc(C(=O)Nc3ccc(C(=O)N4CCN(C(=O)C[C@@H]5CCNC5)CC4)c(Cl)c3)n2C)c(C(F)(F)F)n1` [Example A9, N-[3-chloro-4-[4-[2-[(3S)-pyrrolidin-3-yl]acetyl]piperazine-1-carbonyl]phenyl]-5-[2-(dimethylamino)-4-(trifluoromethyl)pyrimidin-5-yl]-1-methyl-imidazole-2-carboxamide]: the IC90 came out at 0.58 µM.

With `COc1ncc(-c2cnc(C(=O)Nc3ccc(C(=O)N4CCN(C(=O)C5CCNCC5)CC4)c(Cl)c3)n2C)c(C(F)(F)F)n1` [Example A10, N-[3-chloro-4-[4-(piperidine-4-carbonyl)piperazine-1-carbonyl]phenyl]-5-[2-methoxy-4-(trifluoromethyl)pyrimidin-5-yl]-1-methyl-imidazole-2-carboxamide], the IC90 is 1.4 µM.

In the case of `Cn1c(-c2c(Cl)ccc3[nH]ccc23)cnc1C(=O)Nc1ccc(C(=O)N2CCN(C(=O)C[C@@H]3CCNC3)CC2)c(Cl)c1` [Example A11, 5-(5-chloro-1H-indol-4-yl)-N-[3-chloro-4-[4-[2-[(3S)-pyrrolidin-3-yl]acetyl]piperazine-1-carbonyl]phenyl]-1-methyl-imidazole-2-carboxamide], the IC90 was 0.29 µM.

In the case of `Cn1c(-c2cccc3[nH]ccc23)cnc1C(=O)Nc1ccc(C(=O)N2CCN(C(=O)C3CCNCC3)CC2)c(Cl)c1` [Example A12, N-[3-chloro-4-[4-(piperidine-4-carbonyl)piperazine-1-carbonyl]phenyl]-5-(1H-indol-4-yl)-1-methyl-imidazole-2-carboxamide], the IC90 was 0.49 µM.

For `Cn1c(-c2cccc3c2ccn3C)cnc1C(=O)Nc1ccc(C(=O)N2CCN(C(=O)C3CCNCC3)CC2)c(Cl)c1` [Example A13, N-[3-chloro-4-[4-(piperidine-4-carbonyl)piperazine-1-carbonyl]phenyl]-1-methyl-5-(1-methylindol-4-yl)imidazole-2-carboxamide], the 90% effect concentration (IC90) was 1.1 µM.

As for `COc1ccc(-c2cnc(C(=O)Nc3ccc(C(=O)N4CCN(C(=O)C[C@@H]5CCNC5)CC4)c(Cl)c3)n2C)c(C(F)(F)F)n1` [Example A14, N-[3-chloro-4-[4-[2-[(3S)-pyrrolidin-3-yl]acetyl]piperazine-1-carbonyl]phenyl]-5-[6-methoxy-2-(trifluoromethyl)-3-pyridyl]-1-methyl-imidazole-2-carboxamide], the IC90 amounted to 0.23 µM.

Consider `COc1cc(Cl)c(-c2cnc(C(=O)Nc3ccc(C(=O)N4CCN(C(=O)C5CCNCC5)CC4)c(Cl)c3)n2C)cn1` [Example A15, 5-(4-chloro-6-methoxy-3-pyridyl)-N-[3-chloro-4-[4-(piperidine-4-carbonyl)piperazine-1-carbonyl]phenyl]-1-methyl-imidazole-2-carboxamide], for which the IC90 turned out to be 0.66 µM.

Consider `COc1ccc(-c2cnc(C(=O)Nc3ccc(C(=O)N4CCN(C(=O)C5CCNCC5)CC4)c(Cl)c3)n2C)c(C(F)(F)F)n1` [Example A16, N-[3-chloro-4-[4-(piperidine-4-carbonyl)piperazine-1-carbonyl]phenyl]-5-[6-methoxy-2-(trifluoromethyl)-3-pyridyl]-1-methyl-imidazole-2-carboxamide], for which the 90% effect concentration (IC90) was determined as 0.28 µM.

As to `COc1ccc(-c2cnc(C(=O)Nc3ccc(C(=O)N4CCN(C(=O)[C@@H]5C[C@@H](O)CN5)CC4)c(Cl)c3)n2C)c(C(F)(F)F)n1` [Example A17, N-[3-chloro-4-[4-[(2S,4R)-4-hydroxypyrrolidine-2-carbonyl]piperazine-1-carbonyl]phenyl]-5-[6-methoxy-2-(trifluoromethyl)-3-pyridyl]-1-methyl-imidazole-2-carboxamide], the 90% effect concentration (IC90) is 0.36 µM.

With `COc1ccc(-c2cnc(C(=O)Nc3ccc(C(=O)N4CCN(C(=O)[C@@H]5[C@@H]6CNC[C@@H]65)CC4)c(Cl)c3)n2C)c(C(F)(F)F)n1` [Example A18, N-[4-[4-[(1R,5S)-3-azabicyclo[3.1.0]hexane-6-carbonyl]piperazine-1-carbonyl]-3-chloro-phenyl]-5-[6-methoxy-2-(trifluoromethyl)-3-pyridyl]-1-methyl-imidazole-2-carboxamide], the IC90 is 0.26 µM.

On to `COc1ccc(-c2cnc(C(=O)Nc3ccc(C(=O)N4CCN(C(=O)C5CCNCC5)CC4)c(Cl)c3)n2C)c(C(F)F)n1` [Example A19, N-[3-chloro-4-[4-(piperidine-4-carbonyl)piperazine-1-carbonyl]phenyl]-5-[2-(difluoromethyl)-6-methoxy-3-pyridyl]-1-methyl-imidazole-2-carboxamide], for which the IC90 stood at 0.91 µM.

Still in this test, the particulars now being: ATCC17961, 16 h, read-out: ATCC 17961 IC90 [μM].
With `Cn1c(-c2c(F)ccc3[nH]ccc23)cnc1C(=O)Nc1ccc(C(=O)N2CCN(C(=O)C[C@@H]3CCNC3)CC2)c(Cl)c1` [Example A1, N-[3-chloro-4-[4-[2-[(3S)-pyrrolidin-3-yl]acetyl]piperazine-1-carbonyl]phenyl]-5-(5-fluoro-1H-indol-4-yl)-1-methyl-imidazole-2-carboxamide], the IC90 is 0.23 µM.

The values above are taken from patent US12595255B2, “Heteroaryl-substituted imidazole derivatives” (Hoffmann-La Roche Inc., priority 2021, dated 2026).
